These results are taken from US20200231638A1, “STABILIZED ANTI-MICROBIAL PEPTIDES” (priority 2015, published 2020).

One data set deals with S. marcescens. The data set is classed as cell-based. On the procedure: Antimicrobial Activity Assay:
The following microbroth dilution protocol was adapted to determine the minimum inhibitory concentration (MIC) of each peptide. First, Mueller-Hinton broth (MHB) was passed through an anion exchange column to remove polyanionic species and generate refined MHB. […] Briefly, bacterial cells was grown overnight in refined MHB at 37° C. and then diluted and allowed to grow again for several hours. Serial dilutions of peptide stocks in water (10 μl) were prepared using clear round-bottom polypropylene 96-well plates. Then 90 μl of bacteria in refined MHB was added to give a final inoculum of 5×10^5 CFU/ml. The plates were then covered with porous tape to reduce evaporation, and incubated for 20-24 hours at 37° C. The MIC is the minimum peptide concentration at which no visible growth was observed.

The nature of data set [1]: Circular dichroism spectroscopy (α-helicity). Conditions: for α-helicity by CD in water, absence of TFE: aqueous solution, no TFE; for α-helicity by CD in the presence of TFE: TFE 50% v/v. The data set is classed as physicochemical. On the procedure: To determine the helicity of the panel of stapled magainin II analogues, the peptides were dissolved in water using CD spectroscopy in the presence and absence of trifluoroethanol (TFE; 50% v/v), a helix-promoting solvent. […] Levels of helicity ranged from approximately 34% for MagStap 2 to 100% for MagStap 1 and 3, as compared to an idealized α-helical peptide. […] When the helicity in the presence of TFE was measured, most of the stapled analogues were 50-60% helical except for MagStap 3, which retained 100% α-helical content.
Circular Dichroism Spectroscopy:
Compounds were dissolved in an aqueous solution (e.g. 5 mM potassium phosphate solution at pH 7, or distilled H2O, to concentrations of 25-50 μM). Circular dichroism (CD) spectra were obtained on a spectropolarimeter (Aviv) using standard measurement parameters (e.g., temperature, 37° C.; wavelength, 190-260 nm; step resolution, 0.5 nm; speed, 20 nm/sec; accumulations, 10; response, 1 sec; bandwidth, 1 nm; path length, 0.1 cm). The α-helical content of each peptide was calculated by dividing the mean residue ellipticity by the reported value for a model helical decapeptide (see, e.g., Yang et al., Meth Enzymol. 130:208 (1986)).

The test system of the next data set is B. cereus. The data set is classed as cell-based, Bacillus cereus. The gist of the method: (§1)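 Read-out is visible growth: the MIC is the lowest peptide concentration showing none after 20-24 hours at 37° C. Bacteria in refined (anion-exchanged) Mueller-Hinton broth were seeded at a final 5×10^5 CFU/ml onto water-based peptide serial dilutions.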
Another data set relates to E. coli. The data set is classed as cell-based, Escherichia coli. Summed up:
as §1

The subject of another data set is P. aeruginosa. The data set is classed as cell-based, Pseudomonas aeruginosa. The gist of the method:
as §1

The next data set concerns S. aureus. The data set is classed as cell-based, Staphylococcus aureus. The gist of the method: as §1
The next data set deals with human red blood cells. It counts as cell-based. The gist of the method: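 Washed human RBCs as 1% (v/v) suspension in phosphate-buffered saline incubated 1 h at 37° C with serially diluted peptides. Hemoglobin release in supernatant measured spectrophotometrically (570 nm), % hemolysis relative to untreated and 1% Triton-X100 controls; MHC defined as concentration giving less than 1% release.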

≈ marks a conversion by molar mass, not a printed value. Bridge positions count the residues as written; N and C are the ends. Square brackets hold non-standard residues; d marks the D form. Ends that are not written are not given here. Peptide text beside a SMILES is read from it. R8 = C=CCCCCCC[C@@](C)(N)C(=O)O; S5 = C=CCCC[C@](C)(N)C(=O)O; Nle = CCCC[C@H](N)C(=O)O

Take `CCCC[C@H](NC(=O)[C@@H](NC(=O)[C@H](CCC(=O)O)NC(=O)[C@H](C)NC(=O)[C@@H](NC(=O)[C@H](Cc1ccccc1)NC(=O)[C@H](C)NC(=O)[C@]1(C)CCCC=CCCCCCC[C@@](C)(NC(=O)[C@H](CC(C)C)NC(=O)[C@H](Cc2ccccc2)NC(=O)[C@H](CCCCN)NC(=O)CNC(=O)[C@@H](NC(=O)CN)[C@@H](C)CC)C(=O)N[C@@H](C)C(=O)N[C@@H](C)C(=O)N[C@@H](CCCCN)C(=O)N[C@@H](CCCCN)C(=O)N[C@@H](Cc2ccccc2)C(=O)N[C@@H](C)C(=O)N1)C(C)C)[C@@H](C)CC)C(=O)N[C@@H](CC(N)=O)C(=O)N[C@@H](CO)C(N)=O` [MagStap 1] (H-GIGKFL[R8]AAKKFA[S5]AFVAEI[Nle]NS-NH2; staple 7-14; N-terminus assumed): in the data set with S. marcescens, the “MIC S. marcescens” value was over 50 µg/mL. Besides, in data set [1], the “α-helicity by CD in water, absence of TFE” value (shortened to “α-helicity by CD in water”) was 100%. In addition, the “MIC B. cereus” value in the data set with B. cereus amounted to 12.5 µg/mL (≈ 5.03 µM). The “MIC E. coli” value with E. coli is 12.5 µg/mL (≈ 5.03 µM).

`CCCC[C@H](NC(=O)[C@@H](NC(=O)[C@H](CCC(=O)O)NC(=O)[C@H](C)NC(=O)[C@@H](NC(=O)[C@H](Cc1ccccc1)NC(=O)[C@]1(C)CCCC=CCCCCCC[C@@](C)(NC(=O)[C@H](Cc2c[nH]cn2)NC(=O)[C@H](CC(C)C)NC(=O)[C@H](Cc2ccccc2)NC(=O)[C@H](CCCCN)NC(=O)CNC(=O)[C@@H](NC(=O)CN)[C@@H](C)CC)C(=O)N[C@@H](C)C(=O)N[C@@H](CCCCN)C(=O)N[C@@H](CCCCN)C(=O)N[C@@H](Cc2ccccc2)C(=O)N[C@@H](C)C(=O)N[C@@H](CCCCN)C(=O)N1)C(C)C)[C@@H](C)CC)C(=O)N[C@@H](CC(N)=O)C(=O)N[C@@H](CO)C(N)=O` [MagStap 2] (H-GIGKFLH[R8]AKKFAK[S5]FVAEI[Nle]NS-NH2; staple 8-15; N-terminus assumed): the “MIC S. marcescens” value with S. marcescens is over 50 µg/mL. Further, the “α-helicity by CD in water” value in data set [1] is listed as “approximately 34%”. Moreover, the “MIC B. cereus” value against B. cereus amounted to 3.1 µg/mL (≈ 1.19 µM). Besides, the “MIC E. coli” value in the data set with E. coli came to 3.1 µg/mL (≈ 1.19 µM).

Take `CCCC[C@H](NC(=O)[C@@H](NC(=O)[C@H](CCC(=O)O)NC(=O)[C@H](C)NC(=O)[C@@H](NC(=O)[C@]1(C)CCCC=CCCCCCC[C@@](C)(NC(=O)[C@H](C)NC(=O)[C@H](Cc2c[nH]cn2)NC(=O)[C@H](CC(C)C)NC(=O)[C@H](Cc2ccccc2)NC(=O)[C@H](CCCCN)NC(=O)CNC(=O)[C@@H](NC(=O)CN)[C@@H](C)CC)C(=O)N[C@@H](CCCCN)C(=O)N[C@@H](CCCCN)C(=O)N[C@@H](Cc2ccccc2)C(=O)N[C@@H](C)C(=O)N[C@@H](CCCCN)C(=O)N[C@@H](C)C(=O)N1)C(C)C)[C@@H](C)CC)C(=O)N[C@@H](CC(N)=O)C(=O)N[C@@H](CO)C(N)=O` [MagStap 3] (H-GIGKFLHA[R8]KKFAKA[S5]VAEI[Nle]NS-NH2; staple 9-16; N-terminus assumed): the “MIC S. marcescens” value in the data set with S. marcescens is over 50 µg/mL. Moreover, in data set [1], the “α-helicity by CD in the presence of TFE” value was found to be 100% and the “α-helicity by CD in water” value is reported as 100%. Moreover, the “MIC B. cereus” value against B. cereus was found to be 6.2 µg/mL (≈ 2.45 µM). Further, the “MIC E. coli” value against E. coli amounted to 3.1 µg/mL (≈ 1.22 µM).

On to `CC[C@H](C)[C@H](NC(=O)CN)C(=O)NCC(=O)N[C@@H](CCCCN)C(=O)N[C@@H](Cc1ccccc1)C(=O)N[C@@H](CC(C)C)C(=O)N[C@@H](CCCCN)C(=O)N[C@@H](CCCCN)C(=O)N[C@@H](C)C(=O)N[C@@H](CCCCN)C(=O)N[C@]1(C)CCCCCCC(O)C(O)CCC[C@@](C)(C(=O)N[C@H](C(=O)N[C@@H](CC(C)C)C(=O)N[C@@H](CCCCN)C(=O)N[C@@H](CCCCN)C(N)=O)[C@@H](C)CC)NC(=O)[C@H](C(C)C)NC(=O)[C@H](Cc2ccccc2)NC(=O)[C@H](C)NC(=O)[C@H](CCCCN)NC(=O)CNC(=O)[C@H](Cc2ccccc2)NC1=O` (some centres unmarked) [PexDiol 5], for which the “MIC P. aeruginosa” value in the data set with P. aeruginosa amounted to 1.6 µg/mL (≈ 0.628 µM). Moreover, the “MIC S. aureus” value with S. aureus stood at 3.1 µg/mL (≈ 1.22 µM). Besides, the “MIC S. marcescens” value against S. marcescens was over 50 µg/mL. In addition, the “hemolytic activity (in words)” value in the data set on human red blood cells is recorded as “significant hemolytic activity”. In addition, the “MIC B. cereus” value against B. cereus was 3.1 µg/mL (≈ 1.22 µM). Moreover, the “MIC E. coli” value with E. coli came out at 1.6 µg/mL (≈ 0.628 µM).

Take `CC[C@H](C)[C@H](NC(=O)CN)C(=O)NCC(=O)N[C@@H](CCCCN)C(=O)N[C@@H](Cc1ccccc1)C(=O)N[C@@H](CC(C)C)C(=O)N[C@@H](CCCCN)C(=O)N[C@@H](CCCCN)C(=O)N[C@@H](C)C(=O)N[C@@H](CCCCN)C(=O)N[C@]1(C)CCCCCCC=CCCC[C@@](C)(C(=O)N[C@H](C(=O)N[C@@H](CC(C)C)C(=O)N[C@@H](CCCCN)C(=O)N[C@@H](CCCCN)C(N)=O)[C@@H](C)CC)NC(=O)[C@H](C(C)C)NC(=O)[C@H](Cc2ccccc2)NC(=O)[C@H](C)NC(=O)[C@H](CCCCN)NC(=O)CNC(=O)[C@H](Cc2ccccc2)NC1=O` [PexStap 5] (H-GIGKFLKKAK[R8]FGKAFV[S5]ILKK-NH2; staple 11-18; N-terminus assumed): the “MIC P. aeruginosa” value against P. aeruginosa came to 1.6 µg/mL (≈ 0.637 µM). In the data set on S. aureus, the “MIC S. aureus” value amounted to 3.1 µg/mL (≈ 1.23 µM). Also, the “MIC S. marcescens” value against S. marcescens was over 50 µg/mL. In the data set with human red blood cells, the “hemolytic activity (in words)” value was “higher levels of hemolytic activity when compared to PexStap2 and PexStap6”. In addition, the “α-helicity by CD in the presence of TFE” value in data set [1] is given as “around 83%”. Further, the “MIC B. cereus” value with B. cereus came to 1.6 µg/mL (≈ 0.637 µM). For the same molecule, the “MIC E. coli” value with E. coli came out at 1.6 µg/mL (≈ 0.637 µM).

In the case of “GIGKFLKKAKKFGKAFVKILKK-NH2 [Pexiganan, reference compound]”, the “MIC P. aeruginosa” value in the data set with P. aeruginosa came to 1.6 µg/mL. Besides, in the data set with S. aureus, the “MIC S. aureus” value is 6.3 µg/mL. Also, the “MIC S. marcescens” value in the data set with S. marcescens was over 50 µg/mL. The “hemolytic activity (in words)” value in the data set on human red blood cells is on record as “no hemolysis”. Also, in the data set on B. cereus, the “MIC B. cereus” value came out at 3.1 µg/mL. Further, the “MIC E. coli” value in the data set with E. coli was 3.3 µg/mL.
